The text below walks through data of patent US20230340011A1 (Asteroid Therapeutics, priority 2022, published 2023).

The target in one test is SREBP-2 (Homo sapiens (Human), UniProt Q12772). Briefly: In vitro assay SREBP-2: PathHunter U2OS SREBP-2 Nuclear Translocation Cell Line, U18666A-stimulated. The format is cell-based. Particulars: PathHunter U2OS SREBP-2 nuclear translocation cells, U18666A 10 μM, overnight (16 hours).
Another test concerns the target LXRβ (Homo sapiens (Human), UniProt P55055). Briefly: In vitro assay LXRβ: PathHunter NHR CHO cells, LXRβ / Steroid Receptor Co-activator Peptide enzyme fragment complementation. Type of test: cell-based. The settings on record: PathHunter NHR CHO cells, full-length human LXRβ and SRCP, chemiluminescent signal; read-out: LXRβ PPI. The gist of the method:
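Co-activator recruitment measured by chemiluminescence after signal generation. The CHO line carries full-length human LXRβ tagged with ProLink and an SRCP–enzyme acceptor fusion in the nucleus; cells sat overnight at 37° C before testing, in charcoal-dextran filtered serum medium with 1% final vehicle.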

The structures appear in SMILES notation. Where only a bound is given, the exact number is not on record here.

Sequence of LXRβ (P55055 whole entry, the tested form may be a part): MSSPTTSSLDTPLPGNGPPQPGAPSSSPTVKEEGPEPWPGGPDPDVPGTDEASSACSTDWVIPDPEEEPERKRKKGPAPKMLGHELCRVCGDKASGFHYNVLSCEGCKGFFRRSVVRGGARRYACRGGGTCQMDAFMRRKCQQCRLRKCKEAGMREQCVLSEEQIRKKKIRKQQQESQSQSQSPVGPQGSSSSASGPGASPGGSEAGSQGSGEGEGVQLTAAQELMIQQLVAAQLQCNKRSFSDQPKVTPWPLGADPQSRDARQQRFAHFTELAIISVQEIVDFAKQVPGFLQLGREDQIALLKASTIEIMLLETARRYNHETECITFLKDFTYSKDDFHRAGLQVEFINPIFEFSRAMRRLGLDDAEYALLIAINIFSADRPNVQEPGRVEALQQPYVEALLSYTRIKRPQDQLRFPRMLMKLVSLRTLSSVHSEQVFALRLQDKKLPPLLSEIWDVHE

On to `C[C@H](CC(=O)N1CCN(C(=O)c2cnn(C)c2)CC1)[C@H]1CC[C@H]2[C@@H]3CC=C4C[C@@H](O)CC[C@]4(C)[C@H]3CC[C@]12C` [Example 594, (R)-3-((3S,8S,9S,10R,13R,14S,17R)-3-hydroxy-10,13-dimethyl-2,3,4,7,8,9,10,11,12,13,14,15,16,17-tetradecahydro-1H-cyclopenta[a]phenanthren-17-yl)-1-(4-(1-methyl-1H-pyrazole-4-carbonyl)piperazin-1-yl)butan-1-one], for which the IC50 (in general, the concentration that inhibits the measured activity by half) at SREBP-2 was 1 to 10 µM. Also, the EC50 on LXRβ is over 10 µM.
As for `C[C@H](CC(=O)N1CCN(c2ccncn2)CC1)[C@H]1CC[C@H]2[C@@H]3CC=C4C[C@@H](O)CC[C@]4(C)[C@H]3CC[C@]12C` [Example 595, (R)-3-((3S,8S,9S,10R,13R,14S,17R)-3-hydroxy-10,13-dimethyl-2,3,4,7,8,9,10,11,12,13,14,15,16,17-tetradecahydro-1H-cyclopenta[a]phenanthren-17-yl)-1-(4-(pyrimidin-4-yl)piperazin-1-yl)butan-1-one], the IC50 on SREBP-2 lay in the range of 1 to 10 µM. For the same molecule, the EC50 at LXRβ was over 10 µM.
In the case of `C[C@H](COC(=O)N1CCN(C(=O)c2cnn(C)c2)CC1)[C@H]1CC[C@H]2[C@@H]3CC=C4C[C@@H](O)CC[C@]4(C)[C@H]3CC[C@]12C` [Example 596, (S)-2-((3S,8S,9S,10R,13S,14S,17R)-3-hydroxy-10,13-dimethyl-2,3,4,7,8,9,10,11,12,13,14,15,16,17-tetradecahydro-1H-cyclopenta[a]phenanthren-17-yl)propyl 4-(1-methyl-1H-pyrazole-4-carbonyl)piperazine-1-carboxylate], the IC50 against SREBP-2 was under 0.25 µM. The EC50 at LXRβ was over 10 µM.
On SREBP-2, `C[C@H](COC(=O)N1CCN(c2ccncc2)CC1)[C@H]1CC[C@H]2[C@@H]3CC=C4C[C@@H](O)CC[C@]4(C)[C@H]3CC[C@]12C` [Example 597, (2S)-2-[(1R,3aS,3bS,7S,9aR,9bS,11aS)-7-hydroxy-9a,11a-dimethyl-1H,2H,3H,3aH,3bH,4H,6H,7H,8H,9H,9aH,9bH,10H,11H,11aH-cyclopenta[a]phenanthren-1-yl]propyl 4-(pyridin-4-yl)piperazine-1-carboxylate] returned an IC50 of under 0.25 µM. Also, at LXRβ, the EC50 is over 10 µM.
`COC(=O)N1CCN(C(=O)[C@@H](C)[C@H]2CC[C@H]3[C@@H]4CC=C5C[C@@H](O)CC[C@]5(C)[C@H]4CC[C@]23C)CC1` [Example 598, methyl 4-((S)-2-((3S,8S,9S,10R,13S,14S,17R)-3-hydroxy-10,13-dimethyl-2,3,4,7,8,9,10,11,12,13,14,15,16,17-tetradecahydro-1H-cyclopenta[a]phenanthren-17-yl)propanoyl)piperazine-1-carboxylate] registered an IC50 at SREBP-2 of 1 to 10 µM. Further, the EC50 at LXRβ is over 10 µM.
The molecule `C[C@H](C(=O)NCc1ccncc1)[C@H]1CC[C@H]2[C@@H]3CC=C4C[C@@H](O)CC[C@]4(C)[C@H]3CC[C@]12C` [Example 599, (S)-2-((3S,8S,9S,10R,13S,14S,17R)-3-hydroxy-10,13-dimethyl-2,3,4,7,8,9,10,11,12,13,14,15,16,17-tetradecahydro-1H-cyclopenta[a]phenanthren-17-yl)-N-(pyridin-4-ylmethyl)propanamide] gave an IC50 against SREBP-2 of 1 to 10 µM. Besides, the EC50 on LXRβ was over 10 µM.
On SREBP-2, `C[C@H](C(=O)Nc1ccncc1)[C@H]1CC[C@H]2[C@@H]3CC=C4C[C@@H](O)CC[C@]4(C)[C@H]3CC[C@]12C` [Example 600, (S)-2-((3S,8S,9S,10R,13S,14S,17R)-3-hydroxy-10,13-dimethyl-2,3,4,7,8,9,10,11,12,13,14,15,16,17-tetradecahydro-1H-cyclopenta[a]phenanthren-17-yl)-N-(pyridin-4-yl)propanamide] registered an IC50 of 1 to 10 µM. Further, the EC50 on LXRβ was over 10 µM.
